Measured values published in patent US20250002471A1 (Gilead Sciences, Inc., priority 2020, published 2025).

Assays:
TLR7 = target: T1, TLR7 (Homo sapiens, UniProt Q9NYK1); assay: Human PBMC cell-based assay, TLR7 agonist GS-986 stimulation, cytokine (IL-6 and IFNα) readout; conditions: human PBMCs, GS-986 400 nM, 6 hours; Table 26; read-out: TLR-7 EC50
T1 construct: lymphocytes, monocytes and dendritic cells that express TLR7, TLR8 and TLR9; endogenous in cells; host or cells: human PBMCs from healthy donors
T1 sequence (Q9NYK1 27-1049): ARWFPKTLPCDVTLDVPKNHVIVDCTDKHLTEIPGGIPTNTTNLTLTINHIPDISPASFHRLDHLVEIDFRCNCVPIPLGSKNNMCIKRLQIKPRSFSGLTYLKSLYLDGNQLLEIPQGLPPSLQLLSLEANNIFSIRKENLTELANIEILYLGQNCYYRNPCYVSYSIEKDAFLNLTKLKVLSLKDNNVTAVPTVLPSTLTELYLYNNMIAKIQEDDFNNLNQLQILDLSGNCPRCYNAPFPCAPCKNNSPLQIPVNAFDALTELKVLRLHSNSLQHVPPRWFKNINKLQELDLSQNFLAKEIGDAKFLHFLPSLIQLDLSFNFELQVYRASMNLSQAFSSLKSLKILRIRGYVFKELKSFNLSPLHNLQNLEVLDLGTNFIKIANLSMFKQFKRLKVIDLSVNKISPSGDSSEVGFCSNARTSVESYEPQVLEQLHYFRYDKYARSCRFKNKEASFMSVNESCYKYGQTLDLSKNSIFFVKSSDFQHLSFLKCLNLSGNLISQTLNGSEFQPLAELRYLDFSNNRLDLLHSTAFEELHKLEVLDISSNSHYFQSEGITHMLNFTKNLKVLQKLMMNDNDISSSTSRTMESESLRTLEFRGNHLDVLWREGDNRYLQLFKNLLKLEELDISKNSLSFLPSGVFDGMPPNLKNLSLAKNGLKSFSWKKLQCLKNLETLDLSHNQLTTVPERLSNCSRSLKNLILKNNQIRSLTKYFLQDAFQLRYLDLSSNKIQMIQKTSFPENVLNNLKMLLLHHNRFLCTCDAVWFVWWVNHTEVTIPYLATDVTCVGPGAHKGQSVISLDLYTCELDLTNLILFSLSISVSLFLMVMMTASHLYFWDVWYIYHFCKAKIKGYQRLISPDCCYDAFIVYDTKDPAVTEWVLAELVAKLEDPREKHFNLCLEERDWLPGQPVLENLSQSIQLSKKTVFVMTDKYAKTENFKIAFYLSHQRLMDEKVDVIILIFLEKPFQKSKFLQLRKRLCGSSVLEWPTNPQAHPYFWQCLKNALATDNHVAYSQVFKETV
From the text: (§1) Human peripheral blood mononuclear cells (PBMCs) consist of lymphocytes, monocytes and dendritic cells that express TLR7, TLR8 and TLR9. These cells respond to TLR7, TLR8 and TLR9 ligand stimulation and produce cytokines and chemokines in vitro and in vivo. Human PBMCs are therefore suitable to be used in a cell-based assay to assess the in vitro potency of a TLR 7, 8, and/or 9 antagonist. The result is expected to be more translatable to the pharmacodynamics response in vivo than cell line-based assays.
(§2) Cryopreserved human PBMCs from healthy donors were thawed and resuspended in RPMI-1640 media with L-glutamine (Corning) supplemented with 10% Fetal Bovine Serum (Hyclone) and 1X Penicillin-Streptomycin (Corning). After counting, the cell density was adjusted to 2 million cells/ml and incubated for 1 hour at 37° C., 5% CO2 for recovery. Following the recovery, the cells were plated by adding 50p per well (100,000 cells) to 384-well cell culture plates (Greiner) containing 250nl of test antagonists in 100% DMSO per well, in a 10 points dose response in quadruplicates. PBMCs were incubated in the presence of test antagonists for one hour at 37° C., 5% CO2 before being stimulated with a TLR7 or TLR9 agonist. GS-986 (Gilead Sciences) was used as the TLR7 agonist at a final concentration of 400 nM. ODN-2216 (InvivoGen) was used as the TLR9 agonist at a final concentration of 3μM. PBMCs were incubated in the presence of the test antagonist and the TLR7 (or TLR9) agonist for an additional 6 hours at 37° C., 5% CO2. At the end of the incubation, the cell culture plates were centrifuged at 500 g for 5 min, and the cell culture supernatant was collected. The level of cytokines (IL-6 and IFNα) in the supernatant was measured by electrochemiluminescence immunoassays (Mesoscale Discovery) following manufacturer's recommended protocols. The level of cytokine measured was plotted against the test antagonist concentration and fitted to a sigmoidal function to determine the EC50, which are shown below in Table 26.

TLR9 = target: T2, TLR9 (Homo sapiens, UniProt Q9NR96); assay: Human PBMC cell-based assay, TLR9 agonist ODN-2216 stimulation, cytokine (IL-6 and IFNα) readout; conditions: human PBMCs, ODN-2216 3 μM, 6 hours; Table 26; read-out: TLR-9 EC50
T2 construct: lymphocytes, monocytes and dendritic cells that express TLR7, TLR8 and TLR9; endogenous in cells; host or cells: human PBMCs from healthy donors
T2 sequence (Q9NR96 26-1032): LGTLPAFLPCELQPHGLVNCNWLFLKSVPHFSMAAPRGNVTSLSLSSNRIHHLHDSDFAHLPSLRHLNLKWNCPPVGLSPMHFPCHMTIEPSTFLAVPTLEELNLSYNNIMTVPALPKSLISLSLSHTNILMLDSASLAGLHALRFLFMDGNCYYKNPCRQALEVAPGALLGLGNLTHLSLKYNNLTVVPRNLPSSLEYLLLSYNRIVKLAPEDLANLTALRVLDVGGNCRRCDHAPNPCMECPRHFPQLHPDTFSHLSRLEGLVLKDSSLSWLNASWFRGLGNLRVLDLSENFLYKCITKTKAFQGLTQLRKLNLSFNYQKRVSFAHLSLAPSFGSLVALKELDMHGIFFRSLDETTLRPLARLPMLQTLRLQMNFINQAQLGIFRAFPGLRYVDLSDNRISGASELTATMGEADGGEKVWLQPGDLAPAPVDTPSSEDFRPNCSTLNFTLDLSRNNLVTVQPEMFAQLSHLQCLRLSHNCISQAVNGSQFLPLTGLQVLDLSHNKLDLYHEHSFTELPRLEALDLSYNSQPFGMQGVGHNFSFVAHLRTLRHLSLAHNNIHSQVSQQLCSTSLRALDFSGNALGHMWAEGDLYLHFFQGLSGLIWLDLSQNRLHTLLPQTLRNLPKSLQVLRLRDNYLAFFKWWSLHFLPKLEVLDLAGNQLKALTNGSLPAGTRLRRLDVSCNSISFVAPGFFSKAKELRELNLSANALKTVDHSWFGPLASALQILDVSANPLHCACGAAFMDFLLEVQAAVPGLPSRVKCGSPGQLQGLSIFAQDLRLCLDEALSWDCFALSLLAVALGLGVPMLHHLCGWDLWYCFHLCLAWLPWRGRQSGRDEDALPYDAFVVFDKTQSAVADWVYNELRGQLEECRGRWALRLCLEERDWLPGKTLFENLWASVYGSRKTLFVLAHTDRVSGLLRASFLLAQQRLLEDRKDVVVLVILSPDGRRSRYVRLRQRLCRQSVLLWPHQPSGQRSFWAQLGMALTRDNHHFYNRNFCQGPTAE
From the text: as §1, §2

| EC50 (TLR7) [nM] | EC50 (TLR9) [nM] | Structure (SMILES) |
| --- | --- | --- |
| 83.2 | 51.2 | Cc1cc(-c2[nH]c3cc(-c4ccc(N5CCNCC5)cc4)ccc3c2C)cc(C)n1 [Example 66] |
| 3 | 199 | Cc1cc(-c2[nH]c3cc(-c4cnc(N5CCNCC5)nc4)ccc3c2C2CC2)cc(C)n1 [Example 67] |
| 324 | 93.2 | Cc1cc(-c2[nH]c3cc(-c4ccc(S(=O)(=O)N5CCNCC5)cc4)ccc3c2C)cc(C)n1 [Example 68] |
| 209 | 38.4 | Cc1cc(-c2[nH]c3cc(-c4cccc(S(=O)(=O)N5CCNCC5)c4)ccc3c2C)cc(C)n1 [Example 69] |
| 6.7 | 187 | CCc1c(-c2cc(C)nc(C)c2)[nH]c2cc(-c3ccc(N4CCNCC4)nc3)ccc12 [Example 70, 2-(2,6-dimethylpyridin-4-yl)-3-ethyl-6-(6-(piperazin-1-yl)pyridin-3-yl)-1H-indole] |
| 92 | 232 | Cc1cc(-c2[nH]c3cc(-c4cn(C5CCNCC5)nn4)ccc3c2C)cc(C)n1 [Example 72, 2-(2,6-dimethylpyridin-4-yl)-3-methyl-6-(1-(piperidin-4-yl)-1H-1,2,3-triazol-4-yl)-1H-indole] |
| 33.3 | 102 | Cc1cc(-c2[nH]c3cc(-c4ccc(N5CCNCC5)nc4)ccc3c2C)ccn1 [Example 73, 3-methyl-2-(2-methylpyridin-4-yl)-6-(6-(piperazin-1-yl)pyridin-3-yl)-1H-indole] |
| 14.3 | 1250 | Cc1cc(-c2[nH]c3cc(-c4ccc(N5CCNCC5)nc4)ccc3c2C)c(C)cn1 [Example 74] |
| 77.3 | 499 | Cc1c(-c2ccnc(C#N)c2)[nH]c2cc(-c3ccc(N4CCNCC4)nc3)ccc12 [Example 75] |
| 63 | 421 | Cc1cc(-c2[nH]c3cc(-c4ccc(N5CCNCC5)nc4)ccc3c2C)cnn1 [Example 76] |
| 10.5 | 768 | Cc1cc(-c2[nH]c3cc(-c4ccc(N5CCNCC5)nc4)ccc3c2C)cc(C#N)n1 [Example 77] |
| 33.1 | 121 | Cc1cc(-c2[nH]c3cc(-c4ccc(N5CCNCC5)nc4)ccc3c2C)cc(N)n1 [Example 78] |
| 10.9 | 994 | COc1cc(-c2[nH]c3cc(-c4ccc(N5CCNCC5)nc4)ccc3c2C)cc(C)n1 [Example 79] |
| 34.4 | 758 | COc1ccc(-c2[nH]c3cc(-c4ccc(N5CCNCC5)nc4)ccc3c2C)cc1OC [Example 81] |
| 503 | 489 | Cc1ncc(-c2[nH]c3cc(-c4ccc(N5CCNCC5)nc4)ccc3c2C)cn1 [Example 82] |
| 778 | 756 | Cc1c(-c2cnc(C(F)(F)F)nc2)[nH]c2cc(-c3ccc(N4CCNCC4)nc3)ccc12 [Example 83] |

| EC50 (TLR7) [nM] | EC50 (TLR9) [nM] | Structure (SMILES) |
| --- | --- | --- |
| 1990 | 964 | Cc1cncc(-c2[nH]c3cc(-c4ccc(N5CCNCC5)nc4)ccc3c2C)c1 [Example 84] |
| 2670 | 1430 | Cc1cncc(-c2[nH]c3cc(-c4ccc(N5CCNCC5)nc4)ccc3c2C)c1C [Example 86] |
| 2180 | 583 | Cc1c(-c2cnn(C)c2)[nH]c2cc(-c3ccc(N4CCNCC4)nc3)ccc12 [Example 87] |
| 317 | 2190 | Cc1nn(C)cc1-c1[nH]c2cc(-c3ccc(N4CCNCC4)nc3)ccc2c1C [Example 88] |
| > 1000 | 428 | Cc1c(-c2cnn3c2CCC3)[nH]c2cc(-c3ccc(N4CCNCC4)nc3)ccc12 [Example 89] |
| 29.8 | 753 | Cc1cc(-c2[nH]c3cc(-c4ccc(N5CCNCC5)nc4)ccc3c2C)c2ccccc2n1 [Example 90] |
| 104 | 540 | Cc1c(-c2cn(C)c(=O)n(C)c2=O)[nH]c2cc(-c3ccc(N4CCNCC4)nc3)ccc12 [Example 91] |
| 664 | 1680 | Cc1c(-c2cn(C)c(=O)c3ccccc23)[nH]c2cc(-c3ccc(N4CCNCC4)nc3)ccc12 [Example 92] |
| 205 | 909 | Cc1c(-c2cc(C#N)c(=O)n(C)c2)[nH]c2cc(-c3ccc(N4CCNCC4)nc3)ccc12 [Example 93] |
| 4.5 | 139 | Cc1cc(-c2[nH]c3cc(-c4ccc(N5CCNCC5)nc4)ccc3c2C)cn(C)c1=O [Example 94, 1,3-dimethyl-5-(3-methyl-6-(6-(piperazin-1-yl)pyridin-3-yl)-1H-indol-2-yl)pyridin-2(1H)-one] |
| 102 | 288 | Cc1c(-c2ccc(=O)n(C)c2)[nH]c2cc(-c3ccc(N4CCNCC4)nc3)ccc12 [Example 95, 1-methyl-5-(3-methyl-6-(6-(piperazin-1-yl)pyridin-3-yl)-1H-indol-2-yl)pyridin-2(1H)-one] |
| 144 | 609 | Cc1cc(-c2[nH]c3cc(-c4ccc(N5CCNCC5)nc4)ccc3c2C)nc(C)n1 [Example 96] |
| 2.6 | 733 | Cc1c(-c2ccc(C#N)c3ncccc23)[nH]c2cc(-c3ccc(N4CCNCC4)nc3)ccc12 [Example 97] |
| 1130 | 1520 | Cc1cncc(-c2[nH]c3cc(-c4ccc(N5CCNCC5)nc4)ccc3c2C)n1 [Example 98] |
| 1.8 | 548 | Cc1cc(-c2[nH]c3cc(-c4ccc(N5CCNCC5)nc4)ccc3c2C)c2cccnc2n1 [Example 99] |
